Data from ChEMBL document CHEMBL1201862, “PubChem BioAssay data set” (2004).
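How tested: cells in 96-well plates exposed to compound for 48 hours at five concentrations. At the GI50, growth is halved.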 Active and inactive are the calls of the source. Rule as the data show it: active = GI50 up to about 1.1 µM and inactive = higher.

Tests used:
Assay in all cases: NCI-60 cell line screen, 48 h
OVCAR-5 = system: OVCAR-5
SK-MEL-28 = system: SK-MEL-28
MDA-MB-435 = system: MDA-MB-435
MDA-MB-231 = system: MDA-MB-231
NCI-H23 = system: NCI-H23
SW-620 = system: SW-620
MDA-N = system: MDA-N
MOLT-4 = system: MOLT-4
U-251 = system: U-251
MCF7 = system: MCF7
RXF 393 = system: RXF 393
UACC-62 = system: UACC-62
EKVX = system: EKVX
LOX IMVI = system: LOX IMVI
CCRF-CEM = system: CCRF-CEM
SF-539 = system: SF-539
786-0 = system: 786-0
SK-OV-3 = system: SK-OV-3
HL-60 = system: HL-60

Compound	GI50 (OVCAR-5)	GI50 (SK-MEL-28)	GI50 (MDA-MB-435)	GI50 (MDA-MB-231)	GI50 (NCI-H23)	GI50 (SW-620)	GI50 (MDA-N)	GI50 (MOLT-4)	GI50 (U-251)	GI50 (MCF7)	GI50 (RXF 393)	GI50 (UACC-62)	GI50 (EKVX)	GI50 (LOX IMVI)	GI50 (CCRF-CEM)	GI50 (SF-539)	GI50 (786-0)	GI50 (SK-OV-3)	GI50 (HL-60)
COc1cc(CNc2c3ccccc3nc3ccccc23)cc(OC)c1OC	3.92 µM (inactive)	5.04 µM (inactive)	3.5 µM (inactive)	5.42 µM (inactive)	3.46 µM (inactive)	1.16 µM (inactive)	2.76 µM (inactive)	1.37 µM (inactive)	5.08 µM (inactive)	5.48 µM (inactive)	2.86 µM (inactive)	2.43 µM (inactive)	5.78 µM (inactive)	2.39 µM (inactive)	1.57 µM (inactive)	3.95 µM (inactive)	2.6 µM (inactive)	5.47 µM (inactive)	
O=C1CC2OCC=C3CN4CCC56c7ccccc7N1C5C2C3CC46O (stereo not given)	> 100 µM (inactive)	> 100 µM (inactive)	> 100 µM (inactive)	> 100 µM (inactive)	> 100 µM (inactive)	> 100 µM (inactive)	> 100 µM (inactive)	> 100 µM (inactive)	> 100 µM (inactive)	> 100 µM (inactive)		> 100 µM (inactive)	> 100 µM (inactive)	> 100 µM (inactive)	> 100 µM (inactive)	> 100 µM (inactive)	> 100 µM (inactive)	> 100 µM (inactive)	> 100 µM (inactive)
CCOc1cc(-c2nc3cc(F)ccc3s2)ccc1O	18.7 µM (inactive)	27.6 µM (inactive)	18.2 µM (inactive)	21.8 µM (inactive)	18 µM (inactive)	19.4 µM (inactive)	15.8 µM (inactive)		19.5 µM (inactive)	5.64 µM (inactive)	18.6 µM (inactive)	16.6 µM (inactive)	10.8 µM (inactive)	16 µM (inactive)	0.6 µM (active)	18.8 µM (inactive)	14.4 µM (inactive)	18.7 µM (inactive)	
O=C(CCNC12CC3CC(CC(C3)C1)C2)c1ccccc1	21.2 µM (inactive)	22.3 µM (inactive)	26.5 µM (inactive)	13.4 µM (inactive)	20.1 µM (inactive)	17.3 µM (inactive)	16 µM (inactive)	13.1 µM (inactive)	15.1 µM (inactive)	19.3 µM (inactive)	20.1 µM (inactive)	19.6 µM (inactive)			11.6 µM (inactive)	20.9 µM (inactive)	16.3 µM (inactive)		10.3 µM (inactive)
COC(=O)[C@H](CCSC)NC(=O)c1ccc(CNC(=O)/C(C)=C/c2ccccc2)cc1	97.1 µM (inactive)	24.7 µM (inactive)	74.5 µM (inactive)	46.8 µM (inactive)	45.8 µM (inactive)	47 µM (inactive)	55.6 µM (inactive)	> 100 µM (inactive)	31 µM (inactive)	80.2 µM (inactive)	15.8 µM (inactive)	32.3 µM (inactive)	83.2 µM (inactive)	33.1 µM (inactive)	> 100 µM (inactive)	26.5 µM (inactive)	20.8 µM (inactive)	39.4 µM (inactive)	
COc1c2ccoc2nc2c(OC)c(OCC(O)C(C)(C)O)ccc12 (stereo not given) [EVOXINE]	> 100 µM (inactive)	> 100 µM (inactive)	> 100 µM (inactive)	75.3 µM (inactive)	> 100 µM (inactive)	> 100 µM (inactive)	> 100 µM (inactive)	> 100 µM (inactive)	> 100 µM (inactive)	> 100 µM (inactive)		> 100 µM (inactive)	> 100 µM (inactive)	> 100 µM (inactive)	> 100 µM (inactive)	> 100 µM (inactive)	> 100 µM (inactive)	> 100 µM (inactive)	> 100 µM (inactive)
CCOC(=O)CCC(NC(=O)c1ccc(NCc2ccc3nc(-c4ccccc4)c(Cl)nc3c2)c2ccccc12)C(=O)OCC (stereo not given)	> 100 µM (inactive)	> 100 µM (inactive)	> 100 µM (inactive)	> 100 µM (inactive)	58.1 µM (inactive)	> 100 µM (inactive)	> 100 µM (inactive)	0.977 µM (active)	> 100 µM (inactive)	43.5 µM (inactive)	> 100 µM (inactive)	> 100 µM (inactive)	> 100 µM (inactive)	> 100 µM (inactive)		> 100 µM (inactive)	> 100 µM (inactive)	> 100 µM (inactive)	
COc1ccc(-n2sc3ncc([N+](=O)[O-])cc3c2=O)cc1	> 100 µM (inactive)	> 100 µM (inactive)	> 100 µM (inactive)	> 100 µM (inactive)	> 100 µM (inactive)	> 100 µM (inactive)	> 100 µM (inactive)	> 100 µM (inactive)	> 100 µM (inactive)	> 100 µM (inactive)		> 100 µM (inactive)	> 100 µM (inactive)	> 100 µM (inactive)	96.4 µM (inactive)	> 100 µM (inactive)	> 100 µM (inactive)	> 100 µM (inactive)	> 100 µM (inactive)
Cc1oc2ccccc2c(=O)c1Cn1nnc2ccccc21	> 100 µM (inactive)	74 µM (inactive)	41.3 µM (inactive)	91.4 µM (inactive)	> 100 µM (inactive)	> 100 µM (inactive)	39.4 µM (inactive)	37.2 µM (inactive)	> 100 µM (inactive)	21.8 µM (inactive)		41.7 µM (inactive)	> 100 µM (inactive)	73.3 µM (inactive)	95.1 µM (inactive)	> 100 µM (inactive)	> 100 µM (inactive)	> 100 µM (inactive)	48.5 µM (inactive)
Cc1cc(C)nc(NS(=O)(=O)c2ccc(Nc3c4ccccc4nc4c(C(=O)NCCCN(CCO)CCO)cccc34)cc2)n1	26.4 µM (inactive)	14.2 µM (inactive)	16 µM (inactive)	27.4 µM (inactive)	29.4 µM (inactive)	8.36 µM (inactive)	17.7 µM (inactive)	3.33 µM (inactive)	13.9 µM (inactive)	5.89 µM (inactive)		14 µM (inactive)	36.6 µM (inactive)	10.3 µM (inactive)	7.66 µM (inactive)		> 10 µM (inactive)	50.1 µM (inactive)	11.5 µM (inactive)
COc1cc2cc(C(=O)N3CC(CCl)c4c3cc(N)c3ccccc43)[nH]c2cc1OCCN(C)C (stereo not given)	0.00713 µM (active)	0.00705 µM (active)	< 0.005 µM (active)	< 0.005 µM (active)	< 0.005 µM (active)	< 0.005 µM (active)	< 0.005 µM (active)	0.0561 µM (active)	< 0.005 µM (active)	< 0.005 µM (active)	< 0.005 µM (active)	< 0.005 µM (active)	0.00809 µM (active)	< 0.005 µM (active)	< 0.005 µM (active)	< 0.005 µM (active)	< 0.005 µM (active)	0.0105 µM (active)	
CCC(CON(C)c1ccccc1)(SC)SC	> 100 µM (inactive)	> 100 µM (inactive)	> 100 µM (inactive)	> 100 µM (inactive)	> 100 µM (inactive)	> 100 µM (inactive)	> 100 µM (inactive)	> 100 µM (inactive)	> 100 µM (inactive)	> 100 µM (inactive)		> 100 µM (inactive)	> 100 µM (inactive)	> 100 µM (inactive)	> 100 µM (inactive)	> 100 µM (inactive)	> 100 µM (inactive)	> 100 µM (inactive)	99.1 µM (inactive)
C=C(C)C(=O)O[C@@H]1C[C@@]2(C)O[C@@H]2C[C@H](O)/C(C)=C/[C@H]2OC(=O)C(=C)[C@@H]21	> 100 µM (inactive)	22.4 µM (inactive)	59.6 µM (inactive)	> 100 µM (inactive)	> 100 µM (inactive)	18.7 µM (inactive)	50 µM (inactive)	28.8 µM (inactive)	> 100 µM (inactive)	35.8 µM (inactive)	33.3 µM (inactive)	74.5 µM (inactive)	62.2 µM (inactive)	29.9 µM (inactive)	17.3 µM (inactive)	> 100 µM (inactive)	38.9 µM (inactive)	> 100 µM (inactive)	
COC(=O)c1cc2c3c(cc(NCCN)c2[nH]1)N(C(=O)c1cc2cc(OC)c(OC)c(OC)c2[nH]1)CC3CCl (stereo not given)	0.0393 µM (active)	0.109 µM (active)	0.152 µM (active)	0.0638 µM (active)	0.0659 µM (active)	0.0369 µM (active)	0.0811 µM (active)	0.0251 µM (active)	0.0144 µM (active)	0.014 µM (active)	0.0301 µM (active)	0.0594 µM (active)	0.158 µM (active)	0.0186 µM (active)	0.0174 µM (active)	0.0392 µM (active)	0.0423 µM (active)	0.273 µM (active)	
CCOC(=O)C1=CNC(C(=O)OCC)C1c1cccn1-c1ccc(Cl)cc1[N+](=O)[O-] (stereo not given)	12.5 µM (inactive)	26.2 µM (inactive)	21.5 µM (inactive)	10 µM (inactive)	36.6 µM (inactive)	27.9 µM (inactive)	22 µM (inactive)	22.1 µM (inactive)	20.7 µM (inactive)	20.6 µM (inactive)	14.6 µM (inactive)	15.7 µM (inactive)	17.9 µM (inactive)	15.9 µM (inactive)	24.5 µM (inactive)	16.6 µM (inactive)	19.1 µM (inactive)	32.7 µM (inactive)	
